According to patent US6410523B1, “Vitamin D derivatives substituted at the 2beta-position” (Chugai Seiyaku Kabushiki Kaisha, priority 1998, dated 2002):

Legend:
[1] = biological target: T1, rat plasma vitamin D binding protein (Rattus norvegicus, UniProt P04276); assay: Affinity for rat plasma vitamin D binding protein (3H-25-hydroxyvitamin D3 competition, dextran coated charcoal); details: for 50% binding ability: amount of the test compound providing B/B0=0.5, 3H-25-hydroxyvitamin D3 as radioligand
T1 construct: from tissue; host or cells: rat plasma
T1 sequence (P04276 17-476): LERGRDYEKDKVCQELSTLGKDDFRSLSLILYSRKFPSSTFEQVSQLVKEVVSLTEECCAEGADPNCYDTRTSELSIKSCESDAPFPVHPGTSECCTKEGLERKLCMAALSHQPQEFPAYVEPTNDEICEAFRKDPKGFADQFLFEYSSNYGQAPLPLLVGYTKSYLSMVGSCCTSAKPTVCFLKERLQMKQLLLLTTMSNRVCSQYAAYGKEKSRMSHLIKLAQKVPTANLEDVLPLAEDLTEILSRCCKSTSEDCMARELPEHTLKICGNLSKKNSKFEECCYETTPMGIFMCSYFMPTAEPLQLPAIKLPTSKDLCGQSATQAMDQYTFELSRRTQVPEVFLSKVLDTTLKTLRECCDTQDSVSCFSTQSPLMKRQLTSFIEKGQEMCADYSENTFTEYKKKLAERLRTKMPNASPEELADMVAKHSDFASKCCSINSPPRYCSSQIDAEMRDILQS
Experimental: A solution of a chick small intestine vitamin D receptor, or a solution of a rat plasma vitamin D binding protein was added, and the resulting mixture was left to stand. Then, a dextran coated charcoal solution was added, and the mixture was left to stand in ice cooling, and centrifuged. To the supernatant, a liquid scintillator was added, and the mixture was measured for radioactivity. B/B0 (B=the value of radioactivity measured upon addition of the test compound, B0=the value of radioactivity measured without addition of the test compound) was calculated to find the concentration of the test compound at which B/B0=0.5.
(§1) (50% binding ability refers to the amount of the test compound providing B/B0=0.5)

[2] = biological target: T2, chick small intestine vitamin D receptor (Gallus gallus, UniProt O42392); assay: Affinity for chick small intestine vitamin D receptor (3H-1α,25-dihydroxyvitamin D3 competition, dextran coated charcoal); assay type: binding; details: amount of the test compound providing B/B0=0.5; 3H-1α,25-dihydroxyvitamin D3 as radioligand
T2 construct: A solution of a chick small intestine vitamin D receptor; from tissue; host or cells: chick small intestine
T2 sequence (O42392 1-451): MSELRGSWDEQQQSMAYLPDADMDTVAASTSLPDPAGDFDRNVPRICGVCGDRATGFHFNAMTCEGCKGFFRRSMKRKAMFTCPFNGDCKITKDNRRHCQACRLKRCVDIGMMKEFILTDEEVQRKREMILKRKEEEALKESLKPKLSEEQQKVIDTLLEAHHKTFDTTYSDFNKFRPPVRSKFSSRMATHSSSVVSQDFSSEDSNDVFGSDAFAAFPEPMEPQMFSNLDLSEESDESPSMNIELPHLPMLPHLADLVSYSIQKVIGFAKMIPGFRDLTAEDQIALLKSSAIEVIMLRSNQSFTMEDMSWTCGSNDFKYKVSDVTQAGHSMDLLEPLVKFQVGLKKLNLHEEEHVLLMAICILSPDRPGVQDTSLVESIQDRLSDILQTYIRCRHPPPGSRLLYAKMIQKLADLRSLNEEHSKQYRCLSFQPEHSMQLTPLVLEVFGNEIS
Experimental: A solution of a chick small intestine vitamin D receptor, or a solution of a rat plasma vitamin D binding protein was added, and the resulting mixture was left to stand. Then, a dextran coated charcoal solution was added, and the mixture was left to stand in ice cooling, and centrifuged. To the supernatant, a liquid scintillator was added, and the mixture was measured for radioactivity.
as §1

SMILES	Ratio ([1]; affinity relative to 1,25-dihydroxyvitamin D3 = 1)	50% binding ability [1] [ng]	50% binding ability [2] [ng]
C=C1CC[C@H](O)C/C1=C/C=C1\CCC[C@]2(C)[C@@H]([C@H](C)CCCC(C)(C)O)CC[C@@H]12 [25-Hydroxyvitamin D3, 25-hydroxyvitamin D3]	129	0.209	–
C=C1/C(=C\C=C2/CCC[C@@]3(C)C2CC[C@@H]3[C@H](C)CCCC(C)(C)O)CC(O)C(OCCC(=O)OC)C1O (stereo partly drawn) [Compound 2, 2β-(2-methoxycarbonylethyloxy)-1α, 3β,25-trihydroxy-9,10-secocholesta-5,7,10(19)-triene]	–	4	0.455
